Data published in US20050175719A1, “Procyanidins for treatment and prevention of enzymatic irritation to the skin” (priority 2004, published 2005).

System: trypsin
Assay: Inhibition of trypsin-induced cleavage of fluorescent BODIPY FL casein (EnzChek protease assay kit)
Type: biochemical
Text: The procedure of Example 1 was independently repeated using the procyanidin-containing grape seed extract and STI, respectively, at 0.1% concentration. In addition, the procedure of Example 1 was repeated on the five individual monomer units typically found in OPC, at up to three different concentration levels.

[1] = Table 4, concentration (w/w) 0.1 %
[2] = Table 4, concentration (w/w) 1 %
[3] = Table 4, concentration (w/w) 2.5 %

Catechin (−)
% trypsin inhibition [1]: 18%
% trypsin inhibition [2]: 70%
% trypsin inhibition [3]: 92%

Oc1cc(O)c2c(c1)OC(c1ccc(O)c(O)c1)C(O)C2 (racemic) [Catechin (+/−)]
% trypsin inhibition [1]: 4.6%
% trypsin inhibition [2]: 61%
% trypsin inhibition [3]: 76%

Oc1cc(O)c2c(c1)O[C@@H](c1ccc(O)c(O)c1)[C@@H](O)C2 [Epicatechin (+)]
% trypsin inhibition [1]: 22%

O=C1O[C@H]([C@@H](O)CO)C(O)=C1O [Vit C, Vitamin C]
trypsin inhibition activity (in words) (at concentrations up to 0.1%): no trypsin inhibition activity
% trypsin inhibition (concentration 0.001 % (w/w)): −2%
% trypsin inhibition (concentration 0.01 % (w/w)): 1%
% trypsin inhibition (concentration 0.05 % (w/w)): −12%

Oc1cc(O)c2c(c1)O[C@H](c1ccc(O)c(O)c1)[C@H](O)C2 [Epicatechin (−)]
% trypsin inhibition [2]: 71%
% trypsin inhibition [3]: 90%

Oc1cc(O)c2c(c1)OC(c1ccc(O)c(O)c1)C(O)C2 (stereo not drawn) [Catechin (+)]
% trypsin inhibition [1]: 11%
% trypsin inhibition [2]: 72%
% trypsin inhibition [3]: 89%
